The subject of data set [1] is PCA (Passive Cutaneous Anaphylaxis) reaction. The experiment in a line: Anti-allergic effect: PCA (Passive Cutaneous Anaphylaxis) reaction in rats. In kind it is in vivo, Wister-strain male rats. The conditions noted are these: Rattus norvegicus, oral, 1 hour before antigen challenge, dye leakage at 620 nm. Here is the method:
PCA (Passive Cutaneous Anaphylaxis) reaction in rats was taken as an index to an anti-allergic effect of the compound of the present invention.
In order to perform sensitization, anti-DNP-Asc (dinitrophenylated Ascaris extracts) serum diluted with saline was injected intradermally at 4 sites on the shaved back of groups of 6 Wister-strain male rats (6 weeks of age). 1 hour after oral administration of the test drug, the mixture of equivalent amount of DNP-Asc (5 mg/ml) and 2% Evans blue were intravenously injected to generate PCA reaction. 30 minutes thereafter, rats were killed by decapitation and exsanguinated. The skin was opened in order to evaluate the leakage of blue dye. The obtained skin was dissolved in 2N potassium hydroxide, then 2N phosphoric acid and acetone were added thereto. The amount of dye was determined by measurement of absorbance at 620 nm after centrifugation.

Data set [2] in a line: Acute toxicity test (oral, LD50). The conditions noted are these: mouse, in vivo. The method, then: The test compounds were orally administered to groups of 5 ICR-strain male mice. LD50 value of the compound of the present invention was calculated by the LitchfieldWilcoxon's method based on mortality for 14 days after drug administration.

For 12 molecules, inhibition in vivo and LD50 results are on record in patent US4808587A, “5-substituted pyrido[2,3-d]pyrimidine-2,4-diones” (Nippon Zoki Pharmaceutical Co., Ltd., priority 1986, dated 1989).

Bounds are passed on as bounds.

One may read the inhibition in vivo as how much of the control response was suppressed. Read a low inhibition in vivo as little suppression. Take `Cn1c(=O)c2cccnc2n(C)c1=O` [Compound 2, 1,3-dimethylpyrido[2,3-d]pyrimidine-2,4-dione]: in data set [1], the inhibition in vivo at 20 mg/kg was determined as 51.2%. A word on the LD50: it is the dose at which mortality reaches 50%. High values mean a less toxic substance, low ones a more toxic substance. For the molecule `Cn1c(=O)c2c(N)ccnc2n(C)c1=O` [Compound 4, 5-amino-1,3-dimethylpyrido[2,3-d]pyrimidine-2,4-dione], in data set [2], the LD50 at 336 h came out at 850 mg/kg. The inhibition in vivo at 20 mg/kg in data set [1] was found to be 68.7%. On the same counts, the results for `CCn1c(=O)c2c(N)ccnc2n(CC)c1=O` [Compound 5, 5-amino-1,3-diethylpyrido[2,3-d]pyrimidine-2,4-dione] are greater than 1000 mg/kg and 79.2%. Molecule `CNc1ccnc2c1c(=O)n(C)c(=O)n2C` [Compound 7, 5-methylamino-1,3-dimethylpyrido[2,3-d]pyrimidine-2,4-dione] had an LD50 at 336 h in data set [2] of 1050 mg/kg. The molecule also returned an inhibition in vivo at 20 mg/kg in data set [1] of 73.7%. Consider `CCn1c(=O)c2c(NC)ccnc2n(CC)c1=O` [Compound 8, 5-methylamino-1,3-diethylpyrido[2,3-d]pyrimidine-2,4-dione], for which the inhibition in vivo at 20 mg/kg in data set [1] amounted to 76.4%. As to `C=CCNc1ccnc2c1c(=O)n(C)c(=O)n2C` [Compound 9, 5-allylamino-1,3-dimethylpyrido[2,3-d]pyrimidine-2,4-dione], the LD50 at 336 h in data set [2] is greater than 1000 mg/kg. In data set [1], this molecule returned an inhibition in vivo at 20 mg/kg of 67.9%. Turning to `CC(C)Nc1ccnc2c1c(=O)n(C)c(=O)n2C` [Compound 10, 5-isopropylamino-1,3-dimethylpyrido[2,3-d]pyrimidine-2,4-dione], in data set [2], the LD50 at 336 h was 850 mg/kg. The inhibition in vivo at 20 mg/kg in data set [1] came to 86.6%.

With `Cn1c(=O)c2c(NO)ccnc2n(C)c1=O` [Compound 11, 5-hydroxyamino-1,3-dimethylpyrido[2,3-d]pyrimidine-2,4-dione], the LD50 at 336 h in data set [2] was greater than 1000 mg/kg. Further, the inhibition in vivo at 20 mg/kg in data set [1] was 74%. On to `Cn1c(=O)c2c(O)ccnc2n(C)c1=O` [Compound 14, 5-hydroxy1,3-dimethylpyrido[2,3-d]pyrimidine-2,4-dione], for which the inhibition in vivo at 20 mg/kg in data set [1] came to 49.9%. Consider `Cn1c(=O)c2ccc(N)nc2n(C)c1=O` [Compound 15, 7-amino-1,3-dimethylpyrido[2,3-d]pyrimidine-2,4-dione], for which the LD50 at 336 h in data set [2] is greater than 1200 mg/kg. In data set [1], testing at 20 mg/kg gave an inhibition in vivo of 68.7%. In data set [1], `Cn1c(=O)c2cc(N)cnc2n(C)c1=O` [Compound 17, 6-amino-1,3-dimethylpyrido[2,3-d]pyrimidine-2,4-dione] returned an inhibition in vivo at 20 mg/kg of 56.2%. `Cn1c(=O)c2[nH]cnc2n(C)c1=O` [Theophylline, reference compound]: the inhibition in vivo at 20 mg/kg in data set [1] came to 57.9%.
